# Measured values as given in patent US4971965A, “Antibiotics TAN-1057” (Takeda Chemical Industries, Ltd., priority 1988, dated 1990).
# Experiments:
# [1] = test system: Clostridium perfringens PB6K; experiment: microbe, parasite or virus in culture; type: cell-based; conditions: 18 h
# [2] = test system: Mycoplasma garisepticum TB-3A; experiment: MIC against Mycoplasma (Table 3); type: cell-based; conditions: TB3A, 120 h, 10^6 CFU/ml, Hayflick medium, 37° C., 5 days
# [3] = test system: Staphylococcus aureus N176-3; experiment: Antibacterial activity against clinically isolated S. aureus (agar dilution MIC, Table 2); type: cell-based; conditions: Staphylococcus aureus, N1763; strain N176-3; agar dilution; Mueller Hinton medium; 10^6 CFU/ml; read-out: MIC
# Protocol: (§1) DMPPC: Methicillin, KM: Kanamycin, GM: Gentamycin, EM: Erythromycin (Note
# (§2) Determined by the agar dilution method. Medium: Mueller Hinton medium
# (§3) (Difco, USA) Inoculum Size: 10^6 CFU/ml, 37° C.
# Staphylococcus aureus N8 = experiment: as above; type: cell-based; conditions: Staphylococcus aureus; strain N8; agar dilution; Mueller Hinton medium; 10^6 CFU/ml; read-out: MIC
# Protocol: as §1, §2, §3
# [4] = test system: Staphylococcus aureus N326; experiment: as above; type: cell-based; conditions: Staphylococcus aureus; strain N326; agar dilution; Mueller Hinton medium; 10^6 CFU/ml; read-out: MIC
# Protocol: as §1, §2, §3
# [5] = test system: Staphylococcus aureus N262; experiment: as above; type: cell-based; conditions: Staphylococcus aureus; strain N262; agar dilution; Mueller Hinton medium; 10^6 CFU/ml; read-out: MIC
# Protocol: as §1, §2, §3
# Staphylococcus aureus C7 = experiment: as above; type: cell-based; conditions: Staphylococcus aureus; strain C7; agar dilution; Mueller Hinton medium; 10^6 CFU/ml; read-out: MIC
# Protocol: as §1, §2, §3
# [6] = test system: Staphylococcus aureus N235; experiment: as above; type: cell-based; conditions: Staphylococcus aureus; strain N235; agar dilution; Mueller Hinton medium; 10^6 CFU/ml; read-out: MIC
# Protocol: as §1, §2, §3
# [7] = test system: Staphylococcus aureus TST-75; experiment: as above; type: cell-based; conditions: Staphylococcus aureus, TST75; strain TST-75; agar dilution; Mueller Hinton medium; 10^6 CFU/ml; read-out: MIC
# Protocol: as §1, §2, §3
# Staphylococcus aureus C4 = experiment: as above; type: cell-based; conditions: Staphylococcus aureus, C4
# Protocol: as §1, §2, §3
# Staphylococcus aureus C3 = experiment: as above; type: cell-based; conditions: Staphylococcus aureus; strain C3; agar dilution; Mueller Hinton medium; 10^6 CFU/ml; read-out: MIC
# Protocol: as §1, §2, §3
# [8] = test system: Staphylococcus aureus N62; experiment: as above; type: cell-based; conditions: Staphylococcus aureus; strain N62; agar dilution; Mueller Hinton medium; 10^6 CFU/ml; read-out: MIC
# Protocol: as §1, §2, §3
# [9] = test system: Staphylococcus aureus N91; experiment: as above; type: cell-based; conditions: Staphylococcus aureus; strain N91; agar dilution; Mueller Hinton medium; 10^6 CFU/ml; read-out: MIC
# Protocol: as §1, §2, §3
# [10] = test system: Staphylococcus aureus N267; experiment: as above; type: cell-based; conditions: Staphylococcus aureus; strain N267; agar dilution; Mueller Hinton medium; 10^6 CFU/ml; read-out: MIC
# Protocol: as §1, §2, §3
# [11] = test system: Staphylococcus aureus N176; experiment: as above; type: cell-based; conditions: Staphylococcus aureus; strain N176; agar dilution; Mueller Hinton medium; 10^6 CFU/ml; read-out: MIC
# Protocol: as §1, §2, §3
# [12] = test system: Staphylococcus aureus FDA 209P; experiment: as above; type: cell-based; conditions: Staphylococcus aureus, FDA209P; strain FDA 209P; agar dilution; Mueller Hinton medium; 10^6 CFU/ml; read-out: MIC
# Protocol: as §1, §2, §3
# [13] = test system: Staphylococcus aureus N28; experiment: as above; type: cell-based; conditions: Staphylococcus aureus; strain N28; agar dilution; Mueller Hinton medium; 10^6 CFU/ml; read-out: MIC
# Protocol: as §1, §2, §3
# [14] = test system: Staphylococcus aureus N83; experiment: as above; type: cell-based; conditions: Staphylococcus aureus; strain N83; agar dilution; Mueller Hinton medium; 10^6 CFU/ml; read-out: MIC
# Protocol: as §1, §2, §3
# [15] = test system: Staphylococcus aureus TS-65; experiment: as above; type: cell-based; conditions: Staphylococcus aureus, TS65; strain TS-65; agar dilution; Mueller Hinton medium; 10^6 CFU/ml; read-out: MIC
# Protocol: as §1, §2, §3
# [16] = test system: Staphylococcus aureus N247-21; experiment: as above; type: cell-based; conditions: Staphylococcus aureus, N24721; strain N247-21; agar dilution; Mueller Hinton medium; 10^6 CFU/ml; read-out: MIC
# Protocol: as §1, §2, §3
# [17] = test system: Staphylococcus aureus N247-16; experiment: as above; type: cell-based; conditions: Staphylococcus aureus, N24716; strain N247-16; agar dilution; Mueller Hinton medium; 10^6 CFU/ml; read-out: MIC
# Protocol: as §1, §2, §3
# [18] = test system: Staphylococcus aureus N51; experiment: as above; type: cell-based; conditions: Staphylococcus aureus; strain N51; agar dilution; Mueller Hinton medium; 10^6 CFU/ml; read-out: MIC
# Protocol: as §1, §2, §3
# [19] = test system: Staphylococcus aureus N64; experiment: as above; type: cell-based; conditions: Staphylococcus aureus; strain N64; agar dilution; Mueller Hinton medium; 10^6 CFU/ml; read-out: MIC
# Protocol: as §1, §2, §3
# [20] = test system: Peptostreptococcus anaerobium B-40; experiment: MIC against anaerobic bacteria (Table 3); type: cell-based; conditions: B40, 10^6 CFU/ml, GAM medium, Gas Pack, 37° C., 18 hours
# [21] = test system: Treponema hyodicenterie 78/A; experiment: MIC against Spirochaeta (Table 3); conditions: 48 h
# [22] = test system: Treponema hyodicenterie DJ70PI; experiment: MIC against Spirochaeta (Table 3); conditions: 48 h
# [23] = Conversion in aqueous solution; type: physicochemical; conditions: room temperature
# Description: For example, in case that the mixture of TAN-1057A and B is isolated as crystals of the sulfate, the ratio of TAN-1057A and B is about 6 to 8:4 to 2.
# The term "Antibiotics TAN-1057" in the present specification includes also a mixture which contains TAN-1057A, B, C and D in an optional combination and an optional ratio thereof.
# [24] = test system: Bacteroides fladilis ATCC 2509; experiment: MIC against anaerobic bacteria (Table 3); type: cell-based; conditions: ATCC2509, 10^6 CFU/ml, GAM medium, Gas Pack, 37° C., 18 hours
# [25] = test system: Bacteroides thermophilis PNA-1-24; experiment: MIC against anaerobic bacteria (Table 3); type: cell-based; conditions: PNA124, 10^6 CFU/ml, GAM medium, Gas Pack, 37° C., 18 hours
structure (smiles),measurement,setting,value
CN(C(=O)C[C@@H](N)CCCNC(=N)N)[C@H]1CNC(NC(N)=O)=NC1=O [TAN-1057A],MIC,[1],12.5 µg/mL
same,MIC,[2],3.13 µg/mL
same,MIC,[3],1.56 µg/mL
same,MIC,Staphylococcus aureus N8,0.78 µg/mL
same,MIC,[4],0.78 µg/mL
same,MIC,[5],0.78 µg/mL
same,MIC,Staphylococcus aureus C7,0.78 µg/mL
same,MIC,[6],1.56 µg/mL
same,MIC,[7],0.78 µg/mL
same,MIC,Staphylococcus aureus C4,6.25 µg/mL
same,MIC,Staphylococcus aureus C3,0.78 µg/mL
same,MIC,[8],0.78 µg/mL
same,MIC,[9],0.78 µg/mL
same,MIC,[10],≤ 0.2 µg/mL
same,MIC,[11],1.56 µg/mL
same,MIC,[12],0.39 µg/mL
same,MIC,[13],0.78 µg/mL
same,MIC,[14],0.39 µg/mL
same,MIC,[15],0.78 µg/mL
same,MIC,[16],0.78 µg/mL
same,MIC,[17],0.78 µg/mL
same,MIC,[18],0.78 µg/mL
same,MIC,[19],0.78 µg/mL
same,MIC,[20],25 µg/mL
same,MIC,[21],100 µg/mL
same,MIC,[22],100 µg/mL
same,conversion of TAN-1057A and B into each other,[23],converted easily each other
same,MIC,[24],50 µg/mL
same,MIC,[25],0.78 µg/mL
